{"source": "patent US10941143B2", "about": "“Imidazo [1,5-a]pyridine compounds and their use” (Alterity Therapeutics Limited, priority 2019, dated 2021)", "data": [{"tested_on": "human neuroblastoma line BE(2)-M17 (M17) cells", "test": "Measurement of Fe efflux from cells", "type": "cell-based", "settings": "M17 cells pre-loaded with 57Fe, compound 20 μM for 2 h, percentage increase of Fe in media relative to media without compound, read-out: % Fe Efflux Range", "experimental": "Method I: Measurement of Fe Efflux from Cells\nCompounds of the current invention were assessed for their ability to efflux iron (Fe) from a cell using the following protocol.\nThe human neuroblastoma line BE(2)-M17 (M17) cell cultures were acquired from Sigma Aldrich (Catalogue #: 95011816). M17 Cells were maintained in Opti-MEM reduced serum media supplemented with 10% fetal bovine serum (Bovogen, SFBSF) and passaged twice weekly. Cells were cultured at 37° C. in the presence of 5% CO2. Culture supplies were sourced from Thermo Fisher unless otherwise stated.\nA solution of ^57Fe cold isotope was prepared by dissolving ^57Fe metal (>95% enrichment, Trace Sciences International) in concentrated HCl to give a final concentration of 573 mM. From this master solution, a 10 mM working solution was prepared in sterile water. The working solution was used within two months of preparation.\nM17 cells were loaded with iron initially by seeding into 48-well plates at a density of 0.15×10^6 cells per well in 0.5 mL media. After 48 h, old media was discarded. Fresh media was supplemented with 20 μM ^57Fe isotope, from the 10 mM ^57Fe working solution. Cells received 0.2 mL of this ^57Fe enriched media and were returned to the incubator for 20 h. The ability of experimental compounds to efflux iron was determined by the dissolution of compounds in DMSO and diluted in Hanks' Balanced Salt Solution (HBSS) for treatment of M17 cells. After ^57Fe incubation, cells were rinsed twice with HBSS and treated with 0.15 mL trial compound for 2 h at a concentration of 20 μM. All assays included a relevant vehicle (0.4%-0.8% DMSO) as well as a positive control (20 μM). Following the treatment period, 0.1 mL of media was collected from cells and the extracellular ^57Fe content was analysed via inductively coupled mass spectrometry (ICP-MS, Agilent 7700x series instrument).\nTo perform this protocol the following supplies were purchased from Sigma Aldrich: anhydrous dimethyl sulfoxide (DMSO, Catalogue #: 276855), Hanks' Balanced Salt Solution supplemented with 20 mM HEPES and 4.2 mM Sodium Bicarbonate (HBSS, pH: 7.4, Catalogue #: H1387).\nAfter 2 h the Fe levels in the media were measured and the increase determined as a percentage increase relative to the cell media in the absence of the compound.", "units": {"activation at 20 µM": "%"}, "values": [{"smiles": "COc1cccnc1-c1nc(-c2ccccc2O)n2ccccc12", "note": "[Compound 3, 2-(1-(3-Methoxypyridin-2-yl)imidazo[1,5-a]pyridin-3-yl)phenol]", "activation at 20 µM": "30 to 100"}, {"smiles": "Oc1ccccc1-c1nc(-c2ncccc2O)c2ccccn12", "note": "[Compound 4, 2-(3-(2-Hydroxyphenyl)imidazo[1,5-a]pyridin-1-yl)pyridin-3-ol]", "activation at 20 µM": "> 150"}, {"smiles": "Oc1ccc(Br)cc1-c1nc(-c2ccccc2)n2ccccc12", "note": "[Compound 6]", "activation at 20 µM": "< 30"}, {"smiles": "Oc1ccccc1-c1nc(-c2cc(Cl)cc(Cl)c2O)n2ccccc12", "note": "[Compound 7]", "activation at 20 µM": "< 30"}, {"smiles": "Oc1ccccc1-c1nc(-c2cccc(F)c2O)n2ccccc12", "note": "[Compound 10, 2-Fluoro-6-(1-(2-hydroxyphenyl)imidazo[1,5-a]pyridin-3-yl)phenol]", "activation at 20 µM": "30 to 100"}, {"smiles": "N#Cc1ccccc1-c1nc(-c2ccccc2O)c2ccccn12", "note": "[Compound 16, 2-(1-(2-Hydroxyphenyl)imidazo[1,5-a]pyridin-3-yl)benzonitrile]", "activation at 20 µM": "< 30"}, {"smiles": "Cc1ccc(O)c(-c2nc(-c3ccccc3O)c3ccccn23)c1", "note": "[Compound 17]", "activation at 20 µM": "< 30"}, {"smiles": "Oc1ccccc1-c1nc(-c2c(O)cccc2F)n2ccccc12", "note": "[Compound 18, 3-Fluoro-2-(1-(2-hydroxyphenyl)imidazo[1,5-a]pyridin-3-yl)phenol]", "activation at 20 µM": "30 to 100"}, {"smiles": "COC(=O)c1ccccc1-c1nc(-c2ccccc2O)c2ccccn12", "note": "[Compound 20]", "activation at 20 µM": "< 30"}, {"smiles": "Oc1ccccc1-c1nc(-c2cc(Cl)cc(Cl)c2)n2ccccc12", "note": "[Compound 21]", "activation at 20 µM": "< 30"}, {"smiles": "COC(=O)c1ccc(O)c(-c2nc(-c3ccccc3O)c3ccccn23)c1", "note": "[Compound 22, Methyl 4-hydroxy-3-(1-(2-hydroxyphenyl)imidazo[1,5-a]pyridin-3-yl)benzoate]", "activation at 20 µM": "30 to 100"}, {"smiles": "Oc1ccccc1-c1nc(-c2cc(F)cc(F)c2O)n2ccccc12", "note": "[Compound 23]", "activation at 20 µM": "< 30"}, {"smiles": "Oc1ccccc1-c1nc(-c2c(Cl)cccc2Cl)n2ccccc12", "note": "[Compound 24]", "activation at 20 µM": "< 30"}, {"smiles": "COC(=O)c1ccc(-c2nc(-c3ccccc3O)c3ccccn23)cc1", "note": "[Compound 25]", "activation at 20 µM": "< 30"}, {"smiles": "Oc1ccccc1-c1nc(-c2cccc(Cl)c2)n2ccccc12", "note": "[Compound 27]", "activation at 20 µM": "< 30"}, {"smiles": "Oc1ccccc1-c1nc(-c2ccc(Cl)cc2)n2ccccc12", "note": "[Compound 29]", "activation at 20 µM": "< 30"}, {"smiles": "Oc1c(F)cccc1-c1nc(-c2cccc(Br)c2O)c2ccccn12", "note": "[Compound 31]", "activation at 20 µM": "< 30"}, {"smiles": "Oc1c(Cl)cccc1-c1nc(-c2cccc(Br)c2O)c2ccccn12", "note": "[Compound 32]", "activation at 20 µM": "30 to 100"}, {"smiles": "Oc1c(F)cc(F)cc1-c1nc(-c2cccc(Br)c2O)c2ccccn12", "note": "[Compound 33]", "activation at 20 µM": "< 30"}, {"smiles": "Oc1cccc(F)c1-c1nc(-c2cccc(Br)c2O)c2ccccn12", "note": "[Compound 34]", "activation at 20 µM": "30 to 100"}, {"smiles": "Oc1cccc(Cl)c1-c1nc(-c2cccc(Br)c2O)c2ccccn12", "note": "[Compound 35]", "activation at 20 µM": "< 30"}, {"smiles": "Oc1ccccc1-c1nc(-c2cccc(F)c2O)c2ccccn12", "note": "[Compound 37]", "activation at 20 µM": "< 30"}, {"smiles": "Oc1cccc(F)c1-c1nc(-c2cccc(F)c2O)c2ccccn12", "note": "[Compound 38]", "activation at 20 µM": "30 to 100"}, {"smiles": "Oc1cccc(Cl)c1-c1nc(-c2cccc(F)c2O)c2ccccn12", "note": "[Compound 39]", "activation at 20 µM": "30 to 100"}, {"smiles": "Oc1c(F)cccc1-c1nc(-c2cccc(F)c2O)n2ccccc12", "note": "[Compound 40]", "activation at 20 µM": "30 to 100"}, {"smiles": "Oc1c(F)cccc1-c1nc(-c2cccc(Cl)c2O)n2ccccc12", "note": "[Compound 41, 2-Chloro-6-(1-(3-fluoro-2-hydroxyphenyl)imidazo[1,5-a]pyridin-3-yl)phenol]", "activation at 20 µM": "30 to 100"}, {"smiles": "Oc1ccc(Cl)cc1-c1nc(-c2cccc(F)c2O)c2ccccn12", "note": "[Compound 42]", "activation at 20 µM": "30 to 100"}, {"smiles": "Oc1cc(F)c(Br)cc1-c1nc(-c2cccc(F)c2O)n2ccccc12", "note": "[Compound 44]", "activation at 20 µM": "30 to 100"}, {"smiles": "Oc1cc(F)c(Br)cc1-c1nc(-c2c(O)cccc2Cl)n2ccccc12", "note": "[Compound 46]", "activation at 20 µM": "< 30"}, {"smiles": "Oc1cc(F)ccc1-c1nc(-c2c(O)cccc2F)n2ccccc12", "note": "[Compound 49]", "activation at 20 µM": "< 30"}, {"smiles": "Oc1cc(F)ccc1-c1nc(-c2cccc(F)c2O)n2ccccc12", "note": "[Compound 50]", "activation at 20 µM": "30 to 100"}, {"smiles": "Oc1cc(F)ccc1-c1nc(-c2cc(F)ccc2O)n2ccccc12", "note": "[Compound 51]", "activation at 20 µM": "< 30"}, {"smiles": "COc1cccnc1-c1nc(-c2c(O)cccc2F)n2ccccc12", "note": "[Compound 52]", "activation at 20 µM": "< 30"}, {"smiles": "COc1cccnc1-c1nc(-c2cc(F)ccc2O)n2ccccc12", "note": "[Compound 56, 4-Fluoro-2-(1-(3-methoxypyridin-2-yl)imidazo[1,5-a]pyridin-3-yl)phenol]", "activation at 20 µM": "30 to 100"}, {"smiles": "COc1cccnc1-c1nc(-c2cc(Cl)cc(Cl)c2O)n2ccccc12", "note": "[Compound 59]", "activation at 20 µM": "< 30"}, {"smiles": "COc1cccnc1-c1nc(-c2cc(C)ccc2O)n2ccccc12", "note": "[Compound 61]", "activation at 20 µM": "30 to 100"}, {"smiles": "Oc1cc(F)ccc1-c1nc(-c2cccc(Cl)c2O)n2ccccc12", "note": "[Compound 63]", "activation at 20 µM": "< 30"}, {"smiles": "O=[N+]([O-])c1ccccc1-c1nc(-c2ccccc2O)c2ccccn12", "note": "[Compound 77]", "activation at 20 µM": "< 30"}, {"smiles": "Oc1cccnc1-c1nc(-c2c(O)cccc2F)n2ccccc12", "note": "[Compound 79]", "activation at 20 µM": "100 to 150"}, {"smiles": "Oc1cccnc1-c1nc(-c2c(O)cccc2Cl)n2ccccc12", "note": "[Compound 80]", "activation at 20 µM": "30 to 100"}, {"smiles": "Oc1cccnc1-c1nc(-c2cccc(F)c2O)n2ccccc12", "note": "[Compound 81, 2-(3-(3-Fluoro-2-hydroxyphenyl)imidazo[1,5-a]pyridin-1-yl)pyridin-3-ol]", "activation at 20 µM": "> 150"}, {"smiles": "Oc1cccnc1-c1nc(-c2cccc(Cl)c2O)n2ccccc12", "note": "[Compound 82]", "activation at 20 µM": "30 to 100"}, {"smiles": "Oc1ccc(F)cc1-c1nc(-c2ncccc2O)c2ccccn12", "note": "[Compound 83]", "activation at 20 µM": "100 to 150"}, {"smiles": "Oc1cccnc1-c1nc(-c2cc(F)cc(F)c2O)n2ccccc12", "note": "[Compound 84, 2-(3-(3,5-Difluoro-2-hydroxyphenyl)imidazo[1,5-a]pyridin-1-yl)pyridin-3-ol]", "activation at 20 µM": "> 150"}, {"smiles": "Oc1cccnc1-c1nc(-c2cc(Cl)cc(Cl)c2O)n2ccccc12", "note": "[Compound 85]", "activation at 20 µM": "30 to 100"}, {"smiles": "Cc1ccc(O)c(-c2nc(-c3c(O)cccc3F)n3ccccc23)c1", "note": "[Compound 87]", "activation at 20 µM": "< 30"}, {"smiles": "Oc1ccc(Cl)cc1-c1nc(-c2ncccc2O)c2ccccn12", "note": "[Compound 92]", "activation at 20 µM": "100 to 150"}, {"smiles": "Oc1cc(Cl)ccc1-c1nc(-c2ncccc2O)c2ccccn12", "note": "[Compound 93]", "activation at 20 µM": "30 to 100"}, {"smiles": "Cc1ccc(O)c(-c2nc(-c3ncccc3O)c3ccccn23)c1", "note": "[Compound 94]", "activation at 20 µM": "30 to 100"}, {"smiles": "Oc1ccccc1-c1nc(-c2ncccc2O)n2ccccc12", "note": "[Compound 95, 2-(1-(2-Hydroxyphenyl)imidazo[1,5-a]pyridin-3-yl)pyridin-3-ol]", "activation at 20 µM": "30 to 100"}, {"smiles": "Oc1cc(C(F)(F)F)ccc1-c1nc(-c2cccc(F)c2O)n2ccccc12", "note": "[Compound 98, 2-(3-(3-Fluoro-2-hydroxyphenyl)imidazo[1,5-a]pyridin-1-yl)-5-(trifluoromethyl)phenol]", "activation at 20 µM": "< 30"}, {"smiles": "COc1ccccc1-c1nc(-c2ccc(Cl)cc2O)n2ccc(C)cc12", "note": "[Compound 100, 5-Chloro-2-(1-(2-methoxyphenyl)-7-methylimidazo[1,5-a]pyridin-3-yl)phenol]", "activation at 20 µM": "< 30"}, {"smiles": "Oc1ccccc1-c1nc(-c2ccccc2O)n2ncccc12", "note": "[Compound 102, 2,2′-(Imidazo[1,5-b]pyridazine-5,7-diyl)diphenol]", "activation at 20 µM": "< 30"}, {"smiles": "Oc1ccccc1-c1nc(-c2cccc(F)c2O)n2ncccc12", "note": "[Compound 103]", "activation at 20 µM": "30 to 100"}, {"smiles": "Oc1ccccc1-c1nc(-c2cccc(Cl)c2O)n2ncccc12", "note": "[Compound 104]", "activation at 20 µM": "< 30"}, {"smiles": "Oc1ccccc1-c1nc(-c2ccccc2O)n2cccnc12", "note": "[Compound 107, 2,2′-(Imidazo[1,5-a]pyrimidine-6,8-diyl)diphenol]", "activation at 20 µM": "30 to 100"}, {"smiles": "Cc1cccc(-c2nc(-c3ccccc3O)c3ncccn23)c1O", "note": "[Compound 108]", "activation at 20 µM": "< 30"}, {"smiles": "Oc1cnccc1-c1nc(-c2ccccc2O)n2ccccc12", "note": "[Compound 110]", "activation at 20 µM": "> 150"}, {"smiles": "Oc1cnccc1-c1nc(-c2cccc(F)c2O)n2ccccc12", "note": "[Compound 111]", "activation at 20 µM": "100 to 150"}, {"smiles": "Oc1cnccc1-c1nc(-c2cccc(Cl)c2O)n2ccccc12", "note": "[Compound 112]", "activation at 20 µM": "100 to 150"}, {"smiles": "Oc1cnccc1-c1nc(-c2cc(F)cc(F)c2O)n2ccccc12", "note": "[Compound 114, 4-(3-(3,5-Difluoro-2-hydroxyphenyl)imidazo[1,5-a]pyridin-1-yl)pyridin-3-ol]", "activation at 20 µM": "100 to 150"}, {"smiles": "Oc1ccccc1-c1nc(-c2ncccc2O)c2cccnn12", "note": "[Compound 120, 2-(7-(2-Hydroxyphenyl)imidazo[1,5-b]pyridazin-5-yl)pyridin-3-ol]", "activation at 20 µM": "100 to 150"}]}]}
